US20230255952A1, “METHODS FOR TREATING CHRONIC OBSTRUCTIVE PULMONARY DISEASE” (THERAVANCE BIOPHARMA R&D IP, LLC, priority 2018, published 2023)
“Also recorded” adds a separate entry of the source.

System: subjects with chronic obstructive pulmonary disease and a low peak inspiratory flow rate
Assay: 28-day randomized, double-blind, double-dummy, parallel-group clinical study: once-daily revefenacin by nebulizer vs once-daily tiotropium by dry powder inhaler, lung function
Assay type: in vivo, human
Settings: for Trough FEV1, LS Difference (SE), REV vs TIO / Trough FVC, LS Difference (SE), REV vs TIO / Trough IC, LS Difference (SE), REV vs TIO: REV 175 μg nebulizer vs TIO 18 μg dry powder inhaler; for Trough FEV1, LS Mean (SE) / Trough FVC, LS Mean (SE) / Trough IC, LS Mean (SE): change from baseline after 28 once-daily doses, TIO 18 μg dry powder inhaler, REV 175 μg nebulizer
Experimental: A 28-day, randomized, double-blind, double-dummy, parallel-group study was conducted to compare once-daily revefenacin (175 μg of revefenacin in 3 mL of an isotonic, sterile aqueous solution containing sodium chloride, citric acid, sodium citrate, and water for injection at pH 5.0) delivered using a nebulizer (Trek S jet nebulizer (PARI, Midlothian, Va., USA) with once-daily tiotropium (18 μg/day) delivered using a dry powder inhaler (Spiriva HandiHaler, Boebringer Ingelheim Pharmaceuticals, Inc., Ridgefield, Conn., USA) on lung function in subjects with chronic obstructive pulmonary disease and a low peak inspiratory flow rate. Subjects with moderate to very severe COPD were allowed to use concurrent respiratory therapy with the exception of other inhaled anticholinergics. The primary endpoint of the study was the change from baseline in trough forced expiratory volume in one second (FEV1) after the 28th dose. Secondary endpoints included the change from baseline in peak FEV1, trough forced vital capacity (FVC), peak FVC and trough inspiratory capacity (IC) as well as the safety and tolerability of revefenacin 175 μg. Inclusion criteria were: age≥40 years; a smoking history≥10 pack years; a diagnosis of COPD (post-bronchodilator FEV1≤80% predicted and FEV/FVC≤70%); peak inspiratory flow rate (PIFR)<60 L/min as measured by IN-CHECK® DIAL device with resistance set to DISKUS® at screening.
In this study, revefenacin (REV) (administered using a nebulizer) or tiotropium (TIC)) (administered using a dry powder inhaler) was dosed once-daily for 28 days, Peak inspiratory flow rates (best of three) were determined at screening, randomization and end of study using the IN-CHECK® DIAL device with the resistance set to a resistance equal or similar to the resistance associated with the DISKUS® device. FEV1, FVC and IC were measured at baseline and/or peak on day 1 and on day 29. Safety was assessed via the collection of adverse events.

[1] = % predicted FEV1 <50% subpopulation, PIFR <60 L/min
[2] = ITT population, all subjects PIFR <60 L/min
[3] = ITT population, all subjects low PIFR, listed as revefenacin
[4] = subjects with low PIFR (<60 L/min) and percent predicted FEV1 <50%, listed as revefenacin

| Structure (SMILES) | Trough FEV1, LS Difference (SE), REV vs TIO [1] | Trough FVC, LS Difference (SE), REV vs TIO [1] | Trough IC, LS Difference (SE), REV vs TIO [1] | Trough FEV1, LS Mean (SE) [1] | Trough FVC, LS Mean (SE) [1] | Trough IC, LS Mean (SE) [1] | Trough IC, revefenacin by nebulizer compared to tiotropium by dry powder inhaler (in words) (ITT population or subpopulation with low PIFR and percent predicted FEV1 <50%, listed as revefenacin) | Trough FEV1, LS Difference (SE), REV vs TIO (ITT population, PIFR <60 L/min) | Trough FVC, LS Difference (SE), REV vs TIO (ITT population, PIFR <60 L/min) | Trough IC, LS Difference (SE), REV vs TIO (ITT population, PIFR <60 L/min) | Trough FEV1, LS Mean (SE) [2] | Trough FVC, LS Mean (SE) [2] | Trough IC, LS Mean (SE) [2] | Trough FEV1, revefenacin by nebulizer compared to tiotropium by dry powder inhaler (in words) [3] | Trough FVC, revefenacin by nebulizer compared to tiotropium by dry powder inhaler (in words) [3] | Trough FEV1, revefenacin by nebulizer compared to tiotropium by dry powder inhaler (in words) [4] | Trough FVC, revefenacin by nebulizer compared to tiotropium by dry powder inhaler (in words) [4] |
| --- | --- | --- | --- | --- | --- | --- | --- | --- | --- | --- | --- | --- | --- | --- | --- | --- | --- |
| CN(CCN1CCC(OC(=O)Nc2ccccc2-c2ccccc2)CC1)C(=O)c1ccc(CN2CCC(C(N)=O)CC2)cc1 [REV, 1-(2-{4-[(4-carbamoylpiperidin-1-yl)methyl]-N-methylbenzamido}ethyl) piperidin-4-yl N-([1,1′-biphenyl]-2-yl)carbamate] | 47.3 (21.76) | 99.9 (48.75) | 13.7 (45.43) | 74.8 (20.85) | 146.5 (46.69) | 89.7 (42.85) | No differences in trough IC were noted; also recorded: statistically significant difference in trough IC was not observed | 15.7 (22.35) | 69.6 (42.90) | −12.7 (47.38) | 63.0 (20.17) | 125.4 (38.75) | 71.4 (42.33) | did not meet statistical significance nor clinical relevance; also recorded: statistically significant difference in trough FEV1 was not observed | did not meet statistical significance nor clinical relevance; also recorded: statistically significant difference in trough FVC was not observed | statistically significant and clinically relevant greater improvements; also recorded: statistically significant difference in trough FEV1 was observed | statistically significant and clinically relevant greater improvements; also recorded: statistically significant difference in trough FVC was observed |
| C[N+]1(C)[C@@H]2C[C@@H](OC(=O)C(O)(c3cccs3)c3cccs3)C[C@H]1[C@@H]1O[C@@H]12 [TIO, tiotropium, reference compound] |  |  |  | 27.5 (19.53) | 46.7 (43.56) | 76.0 (40.40) |  |  |  |  | 47.3 (19.06) | 55.8 (36.62) | 84.1 (40.02) |  |  |  |  |
